IC50 and viability data for 2 compounds are collected here from PMC12736018, “Stereoselective Cytotoxicity of Enantiopure 3,3-Dichloro-γ-lactams: Correlating In Vitro Activity with In Vivo Tolerability” (Molecules, 2025).

Assay type in all cases: cell-based, human
One data set concerns MCF-7 cells. As to the kind of experiment: NRU cell viability assay, MCF-7. The conditions noted are these: Homo sapiens, MCF7; MCF-7, NRU, 24 h. How it is done: (§1) The murine Swiss albino fibroblast (3T3), the immortal human keratinocyte (HaCaT), the squamous cell carcinoma (A431), the human epithelial carcinoma (HeLa) and the human breast adenocarcinoma (MCF-7) cell lines were sourced from Celltec UB (Barcelona, Spain). All cells were maintained and grown in DMEM medium (4.5 g/L glucose) supplemented with 10% (v/v) FBS, 2 mM L-glutamine, 100 U/mL penicillin and 100 μg/mL streptomycin at 37 °C, 5% CO2. Cells were routinely cultured in 75 cm^2 culture flasks and were trypsinized using trypsin-EDTA when the cells reached approximately 80%. Cell concentration in the resulting suspension was assessed using the trypan blue assay, which enables direct discrimination between viable (unstained) and non-viable (blue) cells.
(§2) T3 and HaCaT cells (1 × 10^5 cells/mL), along with A431, HeLa, and MCF-7 cells (5 × 10^4 cells/mL), were cultured at defined seeding densities in the 60 central wells of a 96-well plate. Cells were first incubated for 24 h under standard incubator conditions (5% CO2, 37 °C). After this period, the culture medium was removed, and the cells were incubated for an additional 24 h with their corresponding compound solutions (1 mg/mL) previously diluted in a minimum amount of DMF (dimethylformamide) and then in DMEM medium supplemented with 5% FBS (100 µL) at the required concentration range (20 to 250 µg/mL). Cell viability following exposure to the lactam derivatives was evaluated using two complementary assays: NRU and MTT.
(§3) The neutral red uptake (NRU) assay is based on the accumulation of dye in the lysosomes of viable cells. After the cells were incubated for 24 h with the corresponding systems, the medium was removed, and the solutions were incubated with the NR dye (Sigma-Aldrich, St. Louis, MO, USA) solution (50 µg/mL) dissolved in the medium, without FBS and without phenol red (Lonza, Verviers, Belgium), for 3 h. Cells were then washed with sterile PBS, followed by the addition of 100 µL of a solution containing 50% absolute ethanol and 1% acetic acid in distilled water to extract the dye. To promote the total dissolution of the dye, plates were placed in a microtiter-plate shaker for 5 min at room temperature. The absorbance of the resulting solutions was measured at 550 nm (Bio-Rad 550 microplate reader, Bio-Rad California, Hercules, CA, USA). Finally, the effect of each treatment was calculated as the percentage of dye uptake by viable cells relative to the control cells (cells without any treatment). Finally, the effect of each treatment was calculated as the percentage of dye retained by viable cells compared with untreated control cells.
(§4) The half-maximal inhibitory concentration (IC50) values for the different formulations, across cell lines and experimental endpoints, were obtained by fitting the concentration-dependent viability curves. […] These findings reflect the very low cytotoxicity of the compounds toward these cell lines.

Data set [1] is described as follows: NRU cell viability assay, MCF-7. The conditions noted are these: human, MCF-7 cells (breast adenocarcinoma), MCF-7, NRU, highest tested concentration (250 µg/mL). The protocol: as §1, §2, §3, §4
Data set [2] is described as follows: NRU cell viability assay, HeLa. The conditions noted are these: human, HeLa cells (epithelial carcinoma), highest tested concentration (250 µg/mL). How it is done: as §1, §2, §3, §4
Data set [3] in a line: NRU cell viability assay, A431. The settings on record: human, A431 cells (squamous cell carcinoma), highest tested concentration (250 µg/mL). The protocol:
as §1, §2, §3, §4

SMILES strings stand for the structures. Values after ≈ are worked out from the molar mass of the structure shown. Bounds are passed on as bounds.

Broadly, the IC50 is the concentration that inhibits the measured activity by half. Read a high IC50 as lower potency. As a reminder, the viability is a per cent measure of how many cells are alive, often set against a control. In the data set on MCF-7 cells, `C[C@@H]1CN([C@@H](C)c2ccccc2)C(=O)C1(Cl)Cl` [Compound 3, (R)-3,3-dichloro-4-methyl-1-((S)-1-phenylethyl)pyrrolidin-2-one] came in with a half-inhibitory concentration (IC50) of 60 µg/mL (≈ 220 µM). Besides, the viability at 24 h, 250 µg/mL in data set [1], in data set [2] and in data set [3] was 20 to 30% throughout.
With `C[C@H](c1ccccc1)N1C[C@H](C)C(Cl)(Cl)C1=O` [Compound 4], the 50% inhibitory concentration (IC50) in the data set with MCF-7 cells was greater than 250 µg/mL.
